Measured values: patent US9421209B2, “Kinase modulators” (Rhizen Pharmaceuticals SA, priority 2009, dated 2016)
Read-outs that look alike come from different tables or passages of the source.

Experiments:
P110β = P110β (Homo sapiens, UniProt P42338); assay: Fluorescent (HTRF) determination of PI3K enzyme activity, β isoform; type: biochemical
Excerpt: Assay 1: Fluorescent determination of PI3Kinase Kinase enzyme activity
Phosphoinositide 3 kinases (PI3K) belong to a class of lipid kinases that play a critical role in the regulation of several key cellular processes. The PI3K are capable of phosphorylating the 3-hydroxy position of phosphoinositols thereby generating second messengers involved in downstream signalling events. The homogenous time resolved fluorescence (HTRF) assay allows detection of 3,4,5-triphosphate (PIP3) formed as a result of phosphorylation of phosphotidylinositol 4,5-biphosphate (PIP2) by PI3K isoforms such as α, β, γ or δ.
PI3K isoform activity for α, β, γ or δ was determined using a PI3K human HTRF™ Assay Kit (Millipore, Billerica, Mass.) with modifications. All incubations were carried out at room temperature. Briefly, 0.5 μl of 40× inhibitor (in 100% DMSO) or 100% DMSO were added to each well of a 384-well black plate (Greiner Bio-One, Monroe, N.C.) containing 14.5 μl 1× reaction buffer/PIP2 (10 mM MgCl2, 5 mM DTT, 1.38 μM PIP2) mix with or without enzyme and incubated for 10 min. After the initial incubation, 5 μl/well of 400 μM ATP was added and incubated for an additional 30 minutes. Reaction was terminated by adding 5 μl/well stop solution (Millipore, Billerica, Mass.). Five microliters of detection mix (Millipore, Billerica, Mass.) were then added to each well and was incubated for 6-18 h in the dark. HRTF ratio was measured on a microplate reader (BMG Labtech., Germany) at an excitation wavelength of 337 nm and emission wavelengths of 665 and 620 nm with an integration time of […]. Data were analyzed using Graphpad Prism (Graphpad software; San Diego Calif.) for IC50 determination. Percent inhibition was calculated based on the values for the blank and enzyme controls. The results are provided below in Table 2 & 3.

P110 δ/Pi3K δ = P110 δ/Pi3K δ (Homo sapiens, UniProt O00329); assay: Fluorescent (HTRF) determination of PI3K enzyme activity, δ isoform; type: biochemical; set-up: inhibition: dose or concentration left out as unconfirmed
Chain of P110 δ/Pi3K δ (O00329 whole entry, canonical isoform): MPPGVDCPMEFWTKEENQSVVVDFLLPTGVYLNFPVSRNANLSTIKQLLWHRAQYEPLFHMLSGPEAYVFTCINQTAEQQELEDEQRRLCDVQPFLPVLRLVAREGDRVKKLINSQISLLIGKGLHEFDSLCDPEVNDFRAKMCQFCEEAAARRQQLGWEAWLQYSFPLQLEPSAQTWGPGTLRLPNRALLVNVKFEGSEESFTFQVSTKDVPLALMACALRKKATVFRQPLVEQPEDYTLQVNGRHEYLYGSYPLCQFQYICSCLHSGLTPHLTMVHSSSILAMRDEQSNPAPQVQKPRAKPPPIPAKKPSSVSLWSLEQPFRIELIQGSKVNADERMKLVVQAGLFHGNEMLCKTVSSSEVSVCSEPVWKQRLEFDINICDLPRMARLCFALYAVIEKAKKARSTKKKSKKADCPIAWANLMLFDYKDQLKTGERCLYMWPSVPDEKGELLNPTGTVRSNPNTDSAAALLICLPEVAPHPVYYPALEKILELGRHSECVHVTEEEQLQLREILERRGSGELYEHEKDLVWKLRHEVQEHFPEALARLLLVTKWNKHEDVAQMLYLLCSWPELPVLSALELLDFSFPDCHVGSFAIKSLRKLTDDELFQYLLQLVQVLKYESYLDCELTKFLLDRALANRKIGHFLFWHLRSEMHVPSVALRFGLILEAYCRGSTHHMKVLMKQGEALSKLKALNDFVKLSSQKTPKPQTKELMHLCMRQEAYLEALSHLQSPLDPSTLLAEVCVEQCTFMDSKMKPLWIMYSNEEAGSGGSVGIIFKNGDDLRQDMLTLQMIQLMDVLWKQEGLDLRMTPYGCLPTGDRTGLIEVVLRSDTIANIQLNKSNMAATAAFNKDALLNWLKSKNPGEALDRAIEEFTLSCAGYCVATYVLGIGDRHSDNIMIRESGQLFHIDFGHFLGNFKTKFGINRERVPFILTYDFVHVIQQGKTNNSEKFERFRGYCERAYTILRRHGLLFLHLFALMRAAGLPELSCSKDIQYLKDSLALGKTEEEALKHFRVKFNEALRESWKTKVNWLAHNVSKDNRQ
Chain of P110 δ/Pi3K δ (P27986 whole entry partner, canonical isoform): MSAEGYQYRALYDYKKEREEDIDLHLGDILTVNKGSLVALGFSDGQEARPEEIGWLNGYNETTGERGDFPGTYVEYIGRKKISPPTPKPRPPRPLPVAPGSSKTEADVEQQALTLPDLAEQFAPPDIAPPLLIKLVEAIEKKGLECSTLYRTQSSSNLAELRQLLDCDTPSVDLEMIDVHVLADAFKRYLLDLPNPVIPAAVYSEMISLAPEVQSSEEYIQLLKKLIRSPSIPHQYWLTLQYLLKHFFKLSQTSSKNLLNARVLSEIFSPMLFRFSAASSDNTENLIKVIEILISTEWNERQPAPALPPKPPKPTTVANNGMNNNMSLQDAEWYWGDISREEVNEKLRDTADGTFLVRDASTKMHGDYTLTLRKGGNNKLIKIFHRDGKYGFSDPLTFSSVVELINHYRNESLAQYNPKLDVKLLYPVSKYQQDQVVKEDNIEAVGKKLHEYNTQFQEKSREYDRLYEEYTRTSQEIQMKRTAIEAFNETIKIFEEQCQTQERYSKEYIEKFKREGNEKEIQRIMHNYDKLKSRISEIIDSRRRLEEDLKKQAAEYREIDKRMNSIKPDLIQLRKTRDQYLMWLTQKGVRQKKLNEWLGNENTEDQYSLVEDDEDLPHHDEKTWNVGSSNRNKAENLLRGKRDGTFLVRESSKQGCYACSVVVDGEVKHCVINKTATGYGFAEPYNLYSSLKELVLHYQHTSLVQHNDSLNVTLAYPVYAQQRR
Procedure, shortened: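 IC50 fitted from percent inhibition relative to blank and enzyme-only wells. Human PI3Kδ converts PIP2 to PIP3 after addition of 400 μM ATP solution, 30 min at room temperature. Product read by time-resolved FRET after stop and 6–18 h dark incubation with detection reagents.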

Chain of P110β (P42338 whole entry, canonical isoform): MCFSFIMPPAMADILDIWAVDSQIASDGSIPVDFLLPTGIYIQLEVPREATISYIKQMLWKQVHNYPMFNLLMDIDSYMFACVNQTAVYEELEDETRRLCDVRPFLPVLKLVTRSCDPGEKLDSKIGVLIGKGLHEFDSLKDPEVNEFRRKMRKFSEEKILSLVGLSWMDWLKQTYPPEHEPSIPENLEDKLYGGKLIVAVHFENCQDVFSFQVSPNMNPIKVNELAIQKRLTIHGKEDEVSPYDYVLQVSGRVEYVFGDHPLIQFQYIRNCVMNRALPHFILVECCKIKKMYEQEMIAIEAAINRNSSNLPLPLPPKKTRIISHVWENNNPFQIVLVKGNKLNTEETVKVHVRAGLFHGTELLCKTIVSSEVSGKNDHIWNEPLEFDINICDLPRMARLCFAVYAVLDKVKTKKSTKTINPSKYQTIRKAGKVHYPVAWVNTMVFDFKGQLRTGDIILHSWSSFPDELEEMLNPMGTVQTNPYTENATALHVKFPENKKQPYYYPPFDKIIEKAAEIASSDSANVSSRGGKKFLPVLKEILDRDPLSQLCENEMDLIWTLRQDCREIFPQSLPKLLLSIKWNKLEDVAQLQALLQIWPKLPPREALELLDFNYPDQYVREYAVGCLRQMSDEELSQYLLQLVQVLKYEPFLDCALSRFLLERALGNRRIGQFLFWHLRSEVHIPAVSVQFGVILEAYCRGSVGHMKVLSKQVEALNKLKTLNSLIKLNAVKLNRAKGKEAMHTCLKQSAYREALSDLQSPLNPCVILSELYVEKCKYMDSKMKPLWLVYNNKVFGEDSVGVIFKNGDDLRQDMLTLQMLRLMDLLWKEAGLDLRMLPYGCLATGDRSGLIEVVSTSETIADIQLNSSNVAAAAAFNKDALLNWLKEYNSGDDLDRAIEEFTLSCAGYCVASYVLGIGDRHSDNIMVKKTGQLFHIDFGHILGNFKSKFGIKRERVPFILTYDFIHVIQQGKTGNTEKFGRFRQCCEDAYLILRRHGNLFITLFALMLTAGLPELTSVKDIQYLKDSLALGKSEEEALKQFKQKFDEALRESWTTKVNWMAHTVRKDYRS
Chain of P110β (P27986 whole entry partner, canonical isoform): as the sequence (P27986 whole entry partner, canonical isoform) above

| Structure (SMILES) | melting point [°C] | inhibition at 1 µM (P110β) [%] | inhibition (P110 δ/Pi3K δ) [%] | also measured |
| --- | --- | --- | --- | --- |
| Cc1n[nH]c2cc(-c3nn([C@H](C)c4oc5ccccc5c(=O)c4-c4cccc(F)c4)c4ncnc(N)c34)ccc12 (single isomer, unassigned) [Example 129, (−)-2-(1-(4-amino-3-(3-methyl-1H-indazol-6-yl)-1H-pyrazolo[3,4-d]pyrimidin-1-yl)ethyl)-3-(3-fluorophenyl)-4H-chromen-4-one] | 157 to 160 |  |  | % inhibition (1 μM) P110β (P110β; 1 µM): ++ (++ is less than equal to 50% inhibition but more than equal to 25% at 1 μM); IC50 (P110 δ/Pi3K δ; read-out: P110 δ/ Pi3K δ IC 50 nM): > 500 nM |
| O=c1c(-c2ccc(F)cc2)c(CN2CCOCC2)oc2ccc(Br)cc12 [Example 17, 6-Bromo-3-(4-fluorophenyl)-2-(morpholinomethyl)-4H-chromen-4-one] |  | < 25 |  |  |
| CC(c1oc2ccccc2c(=O)c1-c1cccc(F)c1)n1nc(-c2csc(C=O)c2)c2c(N)ncnc21 (stereo not shown) [Example 113, 4-(4-amino-1-(1-(3-(3-fluorophenyl)-4-oxo-4H-chromen-2-yl)ethyl)-1H-pyrazolo[3,4-d]pyrimidin-3-yl)thiophene-2-carbaldehyde] | 192 to 195 | < 25 | 50 to 100 |  |
| CC(c1oc2ccccc2c(=O)c1-c1cccc(F)c1)n1nc(-c2csc(CO)c2)c2c(N)ncnc21 (stereo not shown) [Example 114, 2-(1-(4-amino-3-(5-(hydroxymethyl)thiophen-3-yl)-1H-pyrazolo[3,4-d]pyrimidin-1-yl)ethyl)-3-(3-fluorophenyl)-4H-chromen-4-one] | 154 to 156 | < 25 | 50 to 100 |  |
| Cc1c[nH]c2cc(-c3nn(C(C)c4oc5ccccc5c(=O)c4-c4cccc(F)c4)c4ncnc(N)c34)ccc12 (stereo not shown) [Example 117, 2-(1-(4-amino-3-(3-methyl-1H-indol-6-yl)-1H-pyrazolo[3,4-d]pyrimidin-1-yl)ethyl)-3-(3-fluorophenyl)-4H-chromen-4-one] | 262 to 265 |  |  | % inhibition (1 μM) P110β (P110β): + (+ is less than equal to 25% inhibition at 1 μM); P110 δ/ Pi3K δ % inhibition* (P110 δ/Pi3K δ; @ 0.3 uM): ++ (++ is less than equal to 100% inhibition but more than equal to 50% at 1 μM) |
| O=c1c(-c2cccc(F)c2)c(CNc2ncnc3[nH]cnc23)oc2ccc(F)cc12 [Example 122, 2-((9H-purin-6-ylamino)methyl)-6-fluoro-3-(3-fluorophenyl)-4H-chromen-4-one] | 229 to 232 | 50 to 100 | < 50 |  |
| O=c1c(-c2ccccc2)c(CNc2ncnc3[nH]cnc23)oc2ccc(F)cc12 [Example 123, 2-((9H-purin-6-ylamino)methyl)-6-fluoro-3-phenyl-4H-chromen-4-one] | 183 to 186 | < 25 | < 50 |  |
| COc1c(F)cc(-c2nn(C(C)c3oc4ccccc4c(=O)c3-c3cccc(F)c3)c3ncnc(N)c23)cc1F (stereo not shown) [Example 126, 2-(1-(4-amino-3-(3,5-difluoro-4-methoxyphenyl)-1H-pyrazolo[3,4-d]pyrimidin-1-yl)ethyl)-3-(3-fluorophenyl)-4H-chromen-4-one] |  | < 25 |  |  |
| COc1c(F)cc(-c2nn(Cc3oc4ccc(F)cc4c(=O)c3-c3cccc(F)c3)c3ncnc(N)c23)cc1F [Example 127, 2-((4-amino-3-(3,5-difluoro-4-methoxyphenyl)-1H-pyrazolo[3,4-d]pyrimidin-1-yl)methyl)-6-fluoro-3-(3-fluorophenyl)-4H-chromen-4-one] |  | 50 to 100 |  |  |
| CC(c1oc2ccccc2c(=O)c1-c1cccc(F)c1)n1nc(-c2cnn(Cc3ccccc3)c2)c2c(N)ncnc21 (stereo not shown) [Example 134, 2-(1-(4-amino-3-(1-benzyl-1H-pyrazol-4-yl)-1H-pyrazolo[3,4-d]pyrimidin-1-yl)ethyl)-3-(3-fluorophenyl)-4H-chromen-4-one] | 140 to 142 | 25 to 50 | < 50 |  |
| Cc1cc(-c2nn(C(C)c3oc4ccccc4c(=O)c3-c3cccc(F)c3)c3ncnc(N)c23)ccn1 (stereo not shown) [Example 135, 2-(1-(4-amino-3-(2-methylpyridin-4-yl)-1H-pyrazolo[3,4-d]pyrimidin-1-yl)ethyl)-3-(3-fluorophenyl)-4H-chromen-4-one] | 266 to 268 | 25 to 50 | < 50 |  |
| CC(c1oc2ccccc2c(=O)c1-c1cccc(F)c1)n1nc(-c2cccc3c2oc2ccccc23)c2c(N)ncnc21 (stereo not shown) [Example 138, 2-(1-(4-amino-3-(dibenzo[b,d]furan-4-yl)-1H-pyrazolo[3,4-d]pyrimidin-1-yl)ethyl)-3-(3-fluorophenyl)-4H-chromen-4-one] | 238 to 240 | 25 to 50 |  |  |

Continued, in another order:

| melting point [°C] | inhibition at 1 µM (P110β) [%] | inhibition (P110 δ/Pi3K δ) [%] | Structure (SMILES) | also measured |
| --- | --- | --- | --- | --- |
| 269 to 274 |  | < 50 | Cc1c2ccc(-c3nn(C(C)c4oc5ccccc5c(=O)c4-c4cccc(F)c4)c4ncnc(N)c34)cc2nn1C (stereo not shown) [Example 171, 2-(1-(4-amino-3-(2,3-dimethyl-2H-indazol-6-yl)-1H-pyrazolo[3,4-d]pyrimidin-1-yl)ethyl)-3-(3-fluorophenyl)-4H-chromen-4-one] |  |
| 285 to 287 |  | < 50 | COc1ccc2cc(-c3nn(C(C)c4oc5ccccc5c(=O)c4-c4cccc(F)c4)c4ncnc(N)c34)ccc2c1 (stereo not shown) [Example 172, 2-(1-(4-amino-3-(6-methoxynaphthalen-2-yl)-1H-pyrazolo[3,4-d]pyrimidin-1-yl)ethyl)-3-(3-fluorophenyl)-4H-chromen-4-one] |  |
| 226 to 229 |  | 50 to 100 | CC(c1oc2ccccc2c(=O)c1-c1cccc(F)c1)n1nc(-c2csc3ccccc23)c2c(N)ncnc21 (stereo not shown) [Example 173, 2-(1-(4-amino-3-(benzo[b]thiophen-3-yl)-1H-pyrazolo[3,4-d]pyrimidin-1-yl)ethyl)-3-(3-fluorophenyl)-4H-chromen-4-one] |  |
| 127 to 132 |  | < 50 | CC(c1oc2ccccc2c(=O)c1-c1cccc(F)c1)n1nc(-c2cccc(C(=O)NC3CC3)c2)c2c(N)ncnc21 (stereo not shown) [Example 176, 3-(4-amino-1-(1-(3-(3-fluorophenyl)-4-oxo-4H-chromen-2-yl)ethyl)-1H-pyrazolo[3,4-d]pyrimidin-3-yl)-N-cyclopropylbenzamide] |  |
| 104 to 106 |  | < 50 | CC(c1oc2ccccc2c(=O)c1-c1cccc(F)c1)n1nc(-c2cccc(C(=O)N3CCOCC3)c2)c2c(N)ncnc21 (stereo not shown) [Example 177, 2-(1-(4-amino-3-(3-(morpholine-4-carbonyl)phenyl)-1H-pyrazolo[3,4-d]pyrimidin-1-yl)ethyl)-3-(3-fluorophenyl)-4H-chromen-4-one] |  |
| 176 to 179 |  | 50 to 100 | CC(c1oc2ccccc2c(=O)c1-c1cccc(F)c1)n1nc(-c2cccc(OC(F)F)c2)c2c(N)ncnc21 (stereo not shown) [Example 178, 2-(1-(4-amino-3-(3-(difluoromethoxy)phenyl)-1H-pyrazolo[3,4-d]pyrimidin-1-yl)ethyl)-3-(3-fluorophenyl)-4H-chromen-4-one] |  |
| 215 to 217 |  | 50 to 100 | CC(c1oc2ccccc2c(=O)c1-c1cccc(F)c1)n1nc(-c2ccc(C=O)o2)c2c(N)ncnc21 (stereo not shown) [Example 179, 5-(4-amino-1-(1-(3-(3-fluorophenyl)-4-oxo-4H-chromen-2-yl)ethyl)-1H-pyrazolo[3,4-d]pyrimidin-3-yl)furan-2-carbaldehyde] |  |
